# What was measured:
# LC3 = assay: Autophagy assay in Neuro2A cells (LC3-II/LC3-I western blot); type: cell-based, mouse; settings: 24 h
# Description: Amyloid β peptide and autophagy assay Effects of adenine on Amyloid β peptide were analyzed in mouse neuroblastoma cell Neuro2A. Neuro2A cells were cultured in high-glucose Dulbecco's modified Eagle's medium (DMEM) containing 10% fetal bovine serum (FBS), 4 mM L-glutamine, 2 mM sodium pyruvate and 1% penicillin/streptomycin (Invitrogen GibcoBRL, Carlsbad, Calif., USA) at 37° C. under 5% CO2. Cells were plated at 3×10^5 per well (6-well plate). 24 h after plating, cells were transfected with human APP695 and treated with indicated concentration of adenine for 24 h followed by cell lysis and western blot analysis. Equal amounts of protein were separated by SDS-PAGE and then electroblotted on to PVDF membranes. Membranes were blocked with 3% BSA in PBS for 60 min and incubated with an anti-Aβ antibody (1:1,000, abcam), an anti-LC3 antibody (1:1,000, Cell signaling), and an anti-actin antibody (1:5,000, Cell signaling) at 4° C. overnight followed by the corresponding secondary antibody for 1 h at room temperature (RT). Immunoreactive bands were detected by enhanced chemiluminescence (ECL; Pierce, Rockford, Ill., USA) and recorded using Kodakfilm (Rochester, N.Y., USA). The detected signals were scanned and then quantified by using TotalLab Quant software (TotalLab).
# Because the conversion of LC3-I to LC3-II is indicative of autophagy activity, the higher LC3-II/LC3-I ratio in adenine treated cells reflects the ability of adenine to induce autophagy activity.
# TNFα = assay: LPS-induced inflammatory response in THP1 macrophage, secreted TNFα (ELISA); type: cell-based, human; settings: THP1 macrophages, 50 ng LPS 6 hr
# Description: (§1) Effects of adenine on inflammatory response were evaluated in human THP1 macrophage by examining protein level of intracellular COX-2 and secreted TNFα, IL-1β and IL-6. Differentiation of THP1 monocytes into macrophages was induced by 50 nM PMA for 24 hr. THP1 macrophages were further stimulated by 50 ng LPS for 6 hr in the presence of 10-600 μM of adenine or vehicle followed by cell lysis and western blot analysis. Equal amounts of protein were separated by SDS-PAGE and then electroblotted on to PVDF membranes. Membranes were blocked with 3% BSA in PBS for 60 min and incubated with an anti-COX-2 antibody (1:1,000, Cell signaling), an anti-actin antibody (1:5,000, Cell signaling) at 4° C. overnight followed by the corresponding secondary antibody for 1 h at room temperature (RT). Immunoreactive bands were detected by enhanced chemiluminescence (ECL; Pierce, Rockford, Ill., USA) and recorded using Kodak film (Rochester, N.Y., USA). The detected signals were scanned and then quantified using TotalLab Quant software (TotalLab). The secreted TNFα, IL-1β and IL-6 were analyzed by enzyme-linked immunosorbent assays.
# high-fat diet-fed mice = assay: Anti-diabetic effects in high-fat diet-fed mice (type 2 diabetes model); type: in vivo, C57BL/6J mice; settings: IP 0.1 to 50 mg/kg twice a day for 6 days
# Description: To further evaluate the effects of adenine on the modulation of plasma glucose level, the high-fat diet-fed mice were served as a type 2 diabetes animal model. C57BL/6J mice were maintained at 22° C. under a 12-h light/dark cycle and fed either a high fat diet (60% kcal % fat) or a normal diet ad libitum. Intraperitoneal injections of adenine (0.1 to 50 mg/kg) or vehicle were given to the high-fat diet-fed mice from the age of 24 weeks and glucose readings were measure at 1 and 3 hr. IP administration of adenine or vehicle only to the high-fat diet-fed mice continued twice a day for 6 days. On day 6, plasma was collected 1 hr after the last dosing for analyzing, evaluating, measuring plasma glucose and triglycerides.
# [1] = tested on: 6-mm full-thickness excisional skin wounds; assay: Excisional skin wound healing and scar formation in mice; type: in vivo, C57BL/6J mice
# Description: C57BL/6J mice were maintained at 22° C. under a 12-h light/dark cycle. The experiments were performed with 12-weeks old mice. After anesthetized by an intraperitoneal injection of ketamine (500 mg/kg) and xylazine (100 mg/kg), 6-mm full-thickness excisional skin wounds was made on the backs of mice using 6-mm skin biopsy punches. Immediately after wounding, 10-1200 M of adenine in 25 l saline or saline alone was applied to the wound bed. The skin wounds were then covered by semipermeable transparent dressing and fixed to the skin. The mice were treated with adenine or vehicle for 14 days and then sacrificed. The scar formation is assessed by Masson's trichrome staining to observe the fibrosis process and the collagen framework of the healed wound (Fixed by 4% paraformaldehyde).
# IL-1β = assay: LPS-induced inflammatory response in THP1 macrophage, secreted IL-1β (ELISA); type: cell-based, human; settings: THP1 macrophages, 50 ng LPS 6 hr
# Description: as §1
# 3T3 cells = assay: Fibroblast proliferation assay (trypan blue cell counting); type: cell-based, Human; settings: 72 h, mean±SEM
# Description: Human fibro blast cell line 3T3 were cultured in high-glucose Dulbecco's modified Eagle's medium (DMEM) containing 10% fetal bovine serum (FBS), 4 mM L-glutamine, 2 mM sodium pyruvate and 1% penicillin/streptomycin (Invitrogen GibcoBRL, Carlsbad, Calif., USA) at 37° C. under 5% CO2. For cell proliferation assay, 3T3 cells were plated at 1×10^5 per well (6-well plate). 24 h after plating, cells were treated with indicated concentration of adenine for 72 h and the number of viable cells was counted. Cells were detached using trypsin-EDTA solution and stained with trypan blue. The living cells were counted using hemocytometer. […] Data are presented as the mean±SEM of three independent experiments.
# Aβ infusion mice = assay: Aβ-induced Alzheimer's disease model mice, Morris water maze; type: in vivo, C57BL/6J mice; settings: daily IP 0.01, 0.1, 5 or 30 mg/kg for 4 weeks
# Description: Aβ25-35 was purchased from Sigma-Aldrich (St. Louis, Mo.). The peptides were dissolved in distilled saline and aggregated by incubation at 37° C. for 7 days before injection. C57BL/6J mice were maintained at 22° C. under a 12-h light/dark cycle. Adult mice were anesthetized by ketamine (500 mg/kg) and xylazine (100 mg/kg) and placed in a stereotaxic frame (Stoelting, Wood Dale, Ill., USA). 5 nmol of the aggregated A1325-35 were injected into the lateral ventricle using a 10-μ1 Hamilton syringe (Hamilton Company, Reno, Nev., USA). The target anterior-posterior (AP), medial-lateral (ML) and dorsoventral coordinates were −0.5 mm, ±1 mm and −2.5 mm relative to the bregma. To evaluate the effect of adenine on neurodegenerative disease, Aβ infusion mice were daily intraperitoneally injected with 0.01, 0.1, 5 or 30 mg/kg bodyweight of adenine or vehicle for 4 weeks. The cognitive functions of these mice were analyzed by using Morris water maze assay after 4 weeks injection. The water maze was performed in a circular pool filled with water and a platform was submerged below the water's surface in the target quadrant for hidden platform test. […] Mice were allowed to swim in the maze for 60 s and recorded by a video camera. The latency to find the platform and swim paths were analyzed by EthoVision software (Version 3.1, Noldus, The Netherlands).
structure (smiles),measurement,setting,value
"Nc1ncnc2nc[nH]c12 [Adenine, adenine]",LC3-II/LC3-Iratio (relative to control),LC3; adenine 10 microM,1.2 ± 0.1 relative to control
same,LC3-II/LC3-Iratio (relative to control),LC3; adenine 20 microM,1.8 ± 0.3 relative to control
same,LC3-II/LC3-Iratio (relative to control),LC3; adenine 30 microM,2.8 ± 0.2 relative to control
same,LC3-II/LC3-Iratio (relative to control),LC3; adenine 40 microM,2.9 ± 0.2 relative to control
same,LC3-II/LC3-Iratio (relative to control),LC3; adenine 50 microM,3.2 ± 0.3 relative to control
same,TNF•(% to control),TNFα; adenine 10 microM,85 ± 9.1 % to control
same,TNF•(% to control),TNFα; adenine 100 microM,41 ± 2.6 % to control
same,TNF•(% to control),TNFα; adenine 600 microM,23 ± 1.8 % to control
same,lower body weight compare to the control group,high-fat diet-fed mice,more than 15%
same,lower plasma glucose compare to the control group,high-fat diet-fed mice; plasma 1 hr after last dosing,> 30%
same,lower plasma triacylglycerides compare to the control group,high-fat diet-fed mice; plasma 1 hr after last dosing,more than 35%
same,lower plasma glucose compare to the control group,"high-fat diet-fed mice; plasma 1 hr after last dosing, listed as adenine",more than 30%
same,scar width,"[1]; topical adenine, 14 days post-wounding, vs vehicle treated wounds",significantly decreased the scar width
same,extent of wound closure,"[1]; topical, 10-1200 µM of adenine in 25 µl saline, 14 days of treatment, dose-dependent, vs control mice",significantly greater
same,IL-1β•(% to control),IL-1β; adenine 10 microM,91 ± 8.4 % to control
same,IL-1β•(% to control),IL-1β; adenine 100 microM,29 ± 5.5 % to control
same,IL-1β•(% to control),IL-1β; adenine 600 microM,17 ± 3.7 % to control
same,Cell number (% to control),3T3 cells; adenine 10 microM,91 ± 2.7 % to control
same,Cell number (% to control),3T3 cells; adenine 50 microM,73 ± 8.1 % to control
same,Cell number (% to control),3T3 cells; adenine 100 microM,64 ± 5.3 % to control
same,Cell number (% to control),3T3 cells; adenine 200 microM,48 ± 2.8 % to control
same,Cell number (% to control),3T3 cells; adenine 500 microM,33 ± 6.4 % to control
same,Cell number (% to control),3T3 cells; adenine 1000 microM,27 ± 11.3 % to control
same,"percentage time in target quadrant, probe assay",Aβ infusion mice,higher percentage time in target quadrant
same,"time to find platform, hidden platform test",Aβ infusion mice; dose-dependent,significantly shorter time to find platform
